Laboratory results: US7960369B2, “Receptor function regulator” (Takeda Pharmaceutical Company Limited, priority 2002, dated 2011)
Values belong to the molecule of their own block, whether it stands above or below them.

How the values were obtained:
human-derived GPR40 = molecular target: T1, human-derived GPR40 (Homo sapiens, UniProt O14842); experiment: Reactivity of fatty acid to human-derived GPR40, intracellular calcium by FLIPR in transfected CHO-K1 cells; assay type: cell-based; conditions: for response (increase in intracellular calcium concentration) of CHO-K1 cell expressing the GPR40 receptor: added at 10^−5M-10^−6M, FLIPR, control-vector cells showed no response; for activity in intracellular calcium ion mobilization assay using CHO cell expressing GPR40 (GPR40 agonistic activity): as stated in Experimental Example 6
T1 construct: expressed in transfected cells; host or cells: CHO-K1, transient transfection with lipofectamine
T1 sequence (O14842 whole entry): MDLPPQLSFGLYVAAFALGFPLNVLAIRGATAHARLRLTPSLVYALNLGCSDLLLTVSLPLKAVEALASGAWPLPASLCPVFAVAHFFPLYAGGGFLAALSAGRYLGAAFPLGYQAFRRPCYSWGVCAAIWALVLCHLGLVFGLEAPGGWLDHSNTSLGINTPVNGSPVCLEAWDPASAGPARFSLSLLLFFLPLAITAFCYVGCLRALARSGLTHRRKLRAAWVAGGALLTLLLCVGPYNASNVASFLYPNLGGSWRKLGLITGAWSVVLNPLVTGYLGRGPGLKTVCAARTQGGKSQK
Procedure: Unless specifically indicated, CHO-K1 cell line was cultured using Ham's F-12 medium (Invitrogen) containing 10% fetal calf serum (Invitrogen). The day before transfection, 4.5×10^5 per 10 cm^2 of cells were seeded, and incubated at 37° C. for not less than 15 hrs in a CO2 incubator adjusted to 5% CO2 concentration. The transfection was performed using a lipofectamine reagent (Invitrogen) and according to the reagent attached method. When a 6-well plate was used for a culture plate, transfection was performed in the following manner. First two 1.5 ml volume tubes were prepared, and 100 μl of Opti-MEM-I medium (Invitrogen) was dispensed. Then, […] of an expression vector was added to one tube and 6 μl of a lipofectamine reagent was added to the other tube. They were mixed and stood still at room temperature for 20 min. A mixed solution for transfection containing this solution and Opti-MEM-I medium (800 μl) was added to CHO-K1 cell previously washed with Opti-MEM-I medium, and incubated in a CO2 incubator for 6 hrs. The incubated cells were rinsed with PBS (Invitrogen), detached with 0.05% trypsin-EDTA solution (Invitrogen), recovered by centrifugation. The obtained cells were counted, diluted such that 5×10^4 cells were contained per 200 μl of the medium, dispensed to black walled 96-well plate (Costar) at 200 μl per well, incubated overnight in a CO2 incubator. Various test samples were added to CHO-K1 cells transiently expressing the receptor by the above-mentioned transfection step, and changes in the intracellular calcium concentration then was measured using FLIPR (Molecular Device). For measurement of changes in intracellular calcium concentration by FLIPR, the following pretreatment was applied. First, an assay buffer for adding fluorescence dye Fluo-3AM (DOJIN) to the cell, or washing the cell immediately before FLIPR assay was prepared. To a solution (hereinafter HBSS/HEPES solution) obtained by adding 20 ml of 1M HEPES (pH 7.4) (DOJIN) to 1000 ml of HBSS (Invitrogen) was added a solution (10 ml) obtained by dissolving probenecid (710 mg, Sigma) in 1N NaOH (5 ml) and adding and mixing with HBSS/HEPES solution (5 ml) and the obtained solution was used as an assay buffer. Then, Fluo-3AM (50 μg) was dissolved in 21 μl of DMSO (DOJIN), and an equal amount of 20% pluronic acid (Molecular Probes) was added. The mixture was added to an assay buffer (10.6 ml) supplemented with 105 μl of fetal calf serum to give a fluorescence dye solution. The medium of the CHO-KL cell after transfection treatment was removed, a fluorescence dye solution was immediately dispensed at 100 μl per well and incubated in a CO2 incubator for 1 hr to incorporate the fluorescence dye into the cell. The incubated cells were washed with the above-mentioned assay buffer and set on FLIPR. The test sample to be added to receptor expressing CHO-KL cell was prepared using the assay buffer and simultaneously set on FLIPR. After the above-mentioned pretreatment, changes in the intracellular calcium concentration after addition of various test samples were measured by FLIPR.

human GPR40 = molecular target: T2, human GPR40 (Homo sapiens, UniProt O14842); experiment: Effect of regulation of GPR40 receptor function (agonistic effect), intracellular calcium by FLIPR; assay type: cell-based; conditions: CHO cell line (No. 104) expressing human GPR40, fluorescence intensity at 30 sec after start of reaction
T2 construct: expressed in transfected cells; host or cells: CHO cell line CHO-hGPR40 No. 104 (pAKKO-111 vector)
T2 sequence (O14842 whole entry): as above
Procedure: CHO cell line (No. 104) made to express human GPR40 was diluted such that 3×10^4 cells/100 μL were contained, dispensed to a black walled 96-well plate (Costar) at 100 μL per well, and incubated overnight in a CO2 incubator. The changes in the intracellular calcium concentration were measured using FLIPR (Molecular Device). The method is described in the following.
Fluo-3AM (DOJIN) (50 μg) was dissolved in 21 μl DMSO (DOJIN), and an equal amount of 20% pluronic acid (Molecular Probes) was added and mixed, and the mixture was added to 10.6 ml of an assay buffer [prepared by adding 20 ml of 1M HEPES (pH 7.4) (DOJIN) to 1 L of HBSS (Invitrogen), and adding a mixed solution (10 ml) obtained by dissolving probenecid (Sigma) (710 mg) in 1N NaOH (5 ml) and adding and mixing with the above-mentioned HBSS/HEPES solution (5 ml)] supplemented with 105 μl of fetal calf serum to give a fluorescence dye solution. The medium in the cell plate was removed, a fluorescence dye solution was immediately dispensed at 100 μl per well, and incubated in a CO2 incubator for 1 hr to incorporate fluorescence dye into the cell. The incubated cells were washed with the above-mentioned assay buffer. The compound to be added to the cell was diluted with the assay buffer to each concentration and dispensed to a test sample plate. After the above-mentioned pretreatment, changes in the intracellular calcium concentration after addition of the compound was measured by FLIPR, and the agonistic effect was examined. EC50 value was calculated from a dose response curve based on the changes in the fluorescence intensity value at 30 sec after the start of the reaction.

[1] = tested on: mouse pancreatic β cell line MIN6; experiment: Promotion of insulin secretion from MIN6 (insulin immunoassay); assay type: cell-based; conditions: MIN6, KRBH with 22 mM glucose, 90 min
Procedure: (§1) Mouse pancreatic β cell line MIN6 cultured in a flask was detached with PBS containing 2.5 mM EDTA, and seeded and incubated in a 96 well plate for 2 days. The medium used was obtained by adding 15% fetal bovine serum (ThermoTrace), […] 2-mercaptoethanol (Invitrogen), 20 mM HEPES pH 7.3, 100 U/ml penicillin and 100 μg/ml streptomycin to Dulbecco's Modified Eagle Medium (DMEM, Invitrogen) containing 4.5 g/l of glucose. The cells were washed twice with modified Krebs-Ringer bicarbonate buffer (KRBH, 116 mM NaCl, 4.7 mM KCl, 1.2 mM KH2PO4, 1.2 mM MgSO4, 2.5 mM CaCl2, 25 mM NaHCO3, 24 mM HEPES pH 7.3) and preincubated at 37° C. under 5% CO2 conditions for 30 min. Fatty acid diluted and prepared with a buffer obtained by adding 22 mM glucose to the above-mentioned KRBH was added to the cell after preincubation and the cells were incubated at 37° C. under 5% CO2 conditions for 90 min. After incubation, the cell supernatant was recovered and cryopreserved. The insulin content of the supernatant was measured using a commercially available insulin immunoassay kit (Amersham Pharmacia Biotech).
as §1, with “(KBH,” for “(KRBH,”, “The compound” for “Fatty acid”

[2] = tested on: siRNA-introduced MIN6 cell; experiment: Insulin secretion enhancing activity of fatty acid in siRNA-introduced MIN6; assay type: cell-based, mouse
Procedure: The expression amount of mouse GPR40-GFP was detected by the following enzyme immunoassay. The culture supernatant was discarded, washed with HBSS (Invitrogen), fixed with 0.01% glutaraldehyde (Wako Pure Chemical Industries, Ltd.) for 5 min., and blocked with PBS (TAKARA SHUZO) containing 2% BSA. 500-fold diluted anti-GFP monoclonal antibody 3E6 (NIPPON GENE CO., LTD.) was added and the cells were incubated at room temperature for 2 hrs., washed and 500-fold diluted HRP-labeled anti-mouse IgG antibody (ICN) was added, and the cells were incubated at room temperature for 2 hrs. After washing, TMB microwell peroxydase substrate (Funakoshi) was added and, after incubation for 30 min., sulfuric acid was added to stop the color developing reaction, and the absorbance at 450 nm was measured.
as §1
Insulin secretion enhancing activity in MIN6 cell, into which m40i103 was introduced using HVJ Envelope VECTOR KIT GenomONE based on the method of Experimental Example 5, was examined. The insulin secretion enhancing activity by fatty acid was examined by the method of Experimental Example 6.

Molecule: O=C(O)CCc1ccc(OC2CCCc3ccccc32)cc1 (stereo not shown) [Example 2, 4-[(1,2,3,4-tetrahydronaphthalen-1-yl)oxy]benzenepropanoic acid]
EC50 (human GPR40): 170 nM

Molecule: O=C(O)CCc1ccc(OCc2ccc(OCc3ccccc3)cc2)cc1 [Example 6, 4-[[4-(phenylmethoxy)phenyl]methoxy]benzenepropanoic-acid]
EC50 (human GPR40): 160 nM

Molecule: O=C(O)CCc1ccc(OCc2ccc(-c3ccccc3)cc2)cc1 [Example 7, 4-([1,1′-biphenyl]-4-ylmethoxy)benzenepropanoic acid]
EC50 (human GPR40): 130 nM

Molecule: O=C(O)CCc1ccc(OCc2ccccc2)cc1 [Reference Example 2, 4-(phenylmethoxy)benzenepropanoic acid]
EC50 (human GPR40): 320 nM

Molecule: O=C(O)CCc1ccc(OCCCc2ccccc2)cc1 [Reference Example 6, 4-(3-phenylpropoxy)benzenepropanoic acid]
EC50 (human GPR40): 460 nM

Molecule: CN(Cc1ccc(C(=O)Nc2ccc(CCC(=O)O)cc2)cc1)c1nc(-c2ccccc2)cs1 [Reference Example 15, 4-[[4-[[methyl(4-phenyl-2-thiazolyl)amino]methyl]benzoyl]amino]benzenepropanoic acid]
EC50 (human GPR40): 1200 nM

Molecule: CCCC(=O)O [butyric acid]
insulin secretion enhancing activity [1]: did not show a significant insulin secretion enhancing activity | activity in intracellular calcium ion mobilization assay using CHO cell expressing GPR40 (GPR40 agonistic activity) (human-derived GPR40): no GPR40 agonistic activity

Molecule: CC(C)=CCCC(C)=CCCC(C)=CC(=O)O [farnesoic acid]
response (increase in intracellular calcium concentration) of CHO-K1 cell expressing the GPR40 receptor (human-derived GPR40): specifically responds

Molecule: docosatrienoic acid
response (increase in intracellular calcium concentration) of CHO-K1 cell expressing the GPR40 receptor (human-derived GPR40): specifically responds

Molecule: eicosadienoic acid
response (increase in intracellular calcium concentration) of CHO-K1 cell expressing the GPR40 receptor (human-derived GPR40): specifically responds

Molecule: eicosatrienoic acid
response (increase in intracellular calcium concentration) of CHO-K1 cell expressing the GPR40 receptor (human-derived GPR40): specifically responds

Further lines, with some results ahead:

response (increase in intracellular calcium concentration) of CHO-K1 cell expressing the GPR40 receptor (human-derived GPR40): specifically responds
Molecule: CCCCCCCCC#CCC#CCC#CCCCC(=O)O [5.8.11-eicosatriynoic acid]

response (increase in intracellular calcium concentration) of CHO-K1 cell expressing the GPR40 receptor (human-derived GPR40): specifically responds
Molecule: CCCCCC#CCC#CCC#CCC#CCCCC(=O)O [5.8.11.14-eicosatetraynoic acid]

response (increase in intracellular calcium concentration) of CHO-K1 cell expressing the GPR40 receptor (human-derived GPR40): specifically responds
Molecule: CCCCC/C=C\C/C=C\C/C=C\C/C=C\CCCCCC(=O)O [adrenic acid]

response (increase in intracellular calcium concentration) of CHO-K1 cell expressing the GPR40 receptor (human-derived GPR40): specifically responds | activity in intracellular calcium ion mobilization assay using CHO cell expressing GPR40 (GPR40 agonistic activity) (human-derived GPR40): remarkable activity
Molecule: CCCCC/C=C\C/C=C\C/C=C\C/C=C\CCCC(=O)O [arachidonic acid]
insulin secretion enhancing activity [1]: significant insulin secretion enhancing activity

response (increase in intracellular calcium concentration) of CHO-K1 cell expressing the GPR40 receptor (human-derived GPR40): specifically responds
Molecule: CCCCCCCCCCCC(=O)O [lauric acid]

response (increase in intracellular calcium concentration) of CHO-K1 cell expressing the GPR40 receptor (human-derived GPR40): specifically responds | activity in intracellular calcium ion mobilization assay using CHO cell expressing GPR40 (GPR40 agonistic activity) (human-derived GPR40): remarkable activity
Molecule: CCCCC/C=C\C/C=C\CCCCCCCC(=O)O [linoleic acid]
insulin secretion enhancing activity [1]: significant insulin secretion enhancing activity | insulin secretion enhancing activity of fatty acid ([2]; MIN6 into which GPR40 specific siRNA m40i103 was introduced): no longer showed insulin secretion enhancing activity | insulin secretion enhancing activity of fatty acid ([2]; MIN6 into which random sequence Scramble II duplex siRNA was introduced): retention of the insulin secretion enhancing activity

activity in intracellular calcium ion mobilization assay using CHO cell expressing GPR40 (GPR40 agonistic activity) (human-derived GPR40): no GPR40 agonistic activity
Molecule: CCCCC/C=C\C/C=C\CCCCCCCC(=O)OC [methyl linolate]
insulin secretion enhancing activity [1]: did not show a significant insulin secretion enhancing activity

activity in intracellular calcium ion mobilization assay using CHO cell expressing GPR40 (GPR40 agonistic activity) (human-derived GPR40): remarkable activity
Molecule: CC/C=C\C/C=C\C/C=C\CCCCCCCC(=O)O [α-linolenic acid]
insulin secretion enhancing activity [1]: significant insulin secretion enhancing activity
